molecular target: T1, KRAS G12C 1-169, his-tagged protein, GDP-loaded (Homo sapiens, UniProt P01116, G12C); assay: Biochemical assay: covalent modification of KRAS G12C measured by mass spectrometry (RapidFire/TOF or Q-Exactive); format: binding; settings: covalent binding to (modification of) KRAS G12C after a ten minute incubation period
T1 construct: KRAS G12C 1-169, his-tagged protein, GDP-loaded
Method in brief: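 GDP-loaded KRAS G12C 1-169 (his-tagged) at 2 μM or 0.5 μM in 20 mM Hepes, 150 mM NaCl, 1 mM MgCl2, incubated with compound at 100, 30 or 10 μM at room temperature for 10 min, 30 min, 2 h or 24 h, then quenched with formic acid. Intact-protein LC-MS, deconvolved; percent modification from modified versus unmodified protein.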

Molecule | Binding %
C=CC(=O)N1C[C@H](C)N(c2nc(NC(C)=O)nc3c(F)c(-c4c(C)ccc5cnn(C)c45)c(Cl)cc23)C[C@H]1C [Compound 256, N-(4-((2S,5R)-4-acryloyl-2,5-dimethylpiperazin-1-yl)-6-chloro-7-(1,6-dimethyl-1H-indazol-7-yl)-8-fluoroquinazolin-2-yl)acetamide] | ++ (++ indicates binding activity from 50 to 80%)
C=CC(=O)N1C[C@H](C)N(c2nc(OCCN3CCC(F)CC3)nc3c(F)c(-c4c(C)ccc5[nH]nc(N)c45)c(Cl)cc23)C[C@H]1C [Compound 70, 1-((2R,5S)-4-(7-(3-amino-5-methyl-1H-indazol-4-yl)-6-chloro-8-fluoro-2-(2-(4-fluoropiperidin-1-yl)ethoxy)quinazolin-4-yl)-2,5-dimethylpiperazin-1-yl)prop-2-en-1-one] | +++ (+++ indicates binding activity greater than 80%)
C=CC(=O)N1C[C@H](C)N(c2nc(N3CC(N(C)C)C3)nc3c(F)c(-c4c(C)ccc5[nH]nc(C6CC6)c45)c(Cl)cc23)C[C@@H]1C (atropisomer, axis not shown) [Compound 255, 1-((2S,5S)-4-((R)-6-chloro-7-(3-cyclopropyl-5-methyl-1H-indazol-4-yl)-2-(3-(dimethylamino)azetidin-1-yl)-8-fluoroquinazolin-4-yl)-2,5-dimethylpiperazin-1-yl)prop-2-en-1-one] | + (+ indicates binding activity greater than 0% and up to 50%)
C=CC(=O)N1C[C@H](C)N(c2nc(N3CC(N(C)C)C3)nc3c(F)c(-c4c(C)ccc5cnn(C6CC6)c45)c(Cl)cc23)C[C@H]1C (atropisomer, axis not shown) [Compound 149, 1-((2R,5S)-4-((S)-6-chloro-7-(1-cyclopropyl-6-methyl-1H-indazol-7-yl)-2-(3-(dimethylamino)azetidin-1-yl)-8-fluoroquinazolin-4-yl)-2,5-dimethylpiperazin-1-yl)prop-2-en-1-one] | + (+ indicates binding activity greater than 0% and up to 50%)
C=CC(=O)N1C[C@H](C)N(c2nc(OC[C@@H]3CCN(C)C3)nc3c(F)c(-c4c(C)ccc5cnn(C)c45)c(Cl)cc23)C[C@H]1C [Compound 174, 1-((2R,5S)-4-(6-chloro-7-(1,6-dimethyl-1H-indazol-7-yl)-8-fluoro-2-(((R)-1-methylpyrrolidin-3-yl)methoxy)quinazolin-4-yl)-2,5-dimethylpiperazin-1-yl)prop-2-en-1-one] | +++ (+++ indicates binding activity greater than 80%)
C=CC(=O)N1C[C@H](C)N(c2nc(N3CC(N(C)C)C3)nc3c(F)c(-c4c(C)ccc5[nH]nc(C6CC6)c45)c(Cl)cc23)C[C@H]1C (atropisomer, axis not shown) [Compound 75, 1-((2R,5S)-4-((S)-6-chloro-7-(3-cyclopropyl-5-methyl-1H-indazol-4-yl)-2-(3-(dimethylamino)azetidin-1-yl)-8-fluoroquinazolin-4-yl)-2,5-dimethylpiperazin-1-yl)prop-2-en-1-one] | + (+ indicates binding activity greater than 0% and up to 50%)
C=CC(=O)N1C[C@H](C)N(c2nc(N3CC(N(C)C)C3)nc3c(F)c(-c4c(C)ccc5c(Cl)nn(C)c45)c(Cl)cc23)C[C@H]1C [Compound 195, 1-((2R,5S)-4-(6-chloro-7-(3-chloro-1,6-dimethyl-1H-indazol-7-yl)-2-(3-(dimethylamino)azetidin-1-yl)-8-fluoroquinazolin-4-yl)-2,5-dimethylpiperazin-1-yl)prop-2-en-1-one] | + (+ indicates binding activity greater than 0% and up to 50%)
C=CC(=O)N1C[C@H](C)N(c2nc(N3CC(N(C)C)C3)nc3c(F)c(-c4c(C)ccc5c(N)n[nH]c45)c(Cl)cc23)C[C@H]1C [Compound 22, 1-((2R,5S)-4-(7-(3-amino-6-methyl-1H-indazol-7-yl)-6-chloro-2-(3-(dimethylamino)azetidin-1-yl)-8-fluoroquinazolin-4-yl)-2,5-dimethylpiperazin-1-yl)prop-2-en-1-one] | + (+ indicates binding activity greater than 0% and up to 50%)
C=CC(=O)N1C[C@H](C)N(c2nc(N3CC(N(C)C)C3)nc3c(F)c(-c4c(C)ccc5c(N)noc45)c(Cl)cc23)C[C@H]1C [Compound 71, 1-((2R,5S)-4-(7-(3-amino-6-methylbenzo[d]isoxazol-7-yl)-6-chloro-2-(3-(dimethylamino)azetidin-1-yl)-8-fluoroquinazolin-4-yl)-2,5-dimethylpiperazin-1-yl)prop-2-en-1-one] | + (+ indicates binding activity greater than 0% and up to 50%)
C=CC(=O)N1C[C@H](C)N(c2nc(N3CC(N(C)C)C3)nc3c(F)c(-c4c(C)ccc5cnn(C)c45)c(C(F)(F)F)cc23)C[C@H]1C [Compound 171, 1-((2R,5S)-4-(7-(1,6-dimethyl-1H-indazol-7-yl)-2-(3-(dimethylamino)azetidin-1-yl)-8-fluoro-6-(trifluoromethyl)quina-zolin-4-yl)-2,5-dimethylpiperazin-1-yl)prop-2-en-1-one] | +++ (+++ indicates binding activity greater than 80%)
C=CC(=O)N1C[C@H](C)N(c2nc(O[C@H](C)CN(C)C)nc3c(F)c(-c4c(C)ccc5[nH]nc(C6CC6)c45)c(Cl)cc23)C[C@H]1C [Compound 231, 1-((2R,5S)-4-(6-chloro-7-(3-cyclopropyl-5-methyl-1H-indazol-4-yl)-2-((R)-1-(dimethylamino)propan-2-yloxy)-8-fluoroquinazolin-4-yl)-2,5-dimethylpiperazin-1-yl)prop-2-en-1-one] | ++ (++ indicates binding activity from 50 to 80%)
C=CC(=O)N1[C@H](C)CN(c2nc(N3CC(N(C)C)C3)nc3c(F)c(-c4c(C)ccc5[nH]nc(C)c45)c(Cl)cc23)C[C@@H]1C (atropisomer, axis not shown) [Compound 152, 1-((2S,6R)-4-((R)-6-chloro-7-(3,5-dimethyl-1H-indazol-4-yl)-2-2(3-(dimethylamino)azetidin-1-yl)-8-fluoroquinazolin-4-yl)-2,6-dimethylpiperazin-1-yl)prop-2-en-1-one] | +++ (+++ indicates binding activity greater than 80%)
C=CC(=O)N1C[C@H](C)N(c2nc(OCC(C)(C)N(C)C)nc3c(F)c(-c4c(C)ccc5cnn(C)c45)c(Cl)cc23)C[C@H]1C [Compound 205, 1-((2R,5S)-4-(6-chloro-7-(1,6-dimethyl-1H-indazol-7-yl)-2-(2-(dimethylamino)-2-methylpropoxy)-8-fluoroquinazolin-4-yl)-2,5-dimethylpiperazin-1-yl)prop-2-en-1-one] | +++ (+++ indicates binding activity greater than 80%)
C=CC(=O)N1CCN(c2nc(N3CC(N(C)C)C3)nc3c(F)c(-c4c(C)ccc5[nH]nc(C6CC6)c45)c(Cl)cc23)C[C@H]1C (atropisomer, axis not shown) [Compound 101, 1-((R)-4-((S)-6-chloro-7-(3-cyclopropyl-5-methyl-1H-indazol-4-yl)-2-(3-(dimethylamino)azetidin-1-yl)-8-fluoroquinazolin-4-yl)-2-methylpiperazin-1-yl)prop-2-en-1-one] | + (+ indicates binding activity greater than 0% and up to 50%)
C=CC(=O)N1C[C@H](C)N(c2nc(N3CC(N(C)C)C3)nc3c(F)c(-c4c(C)ccc5cnn(C6CC6)c45)c(Cl)cc23)C[C@H]1C (atropisomer, axis not shown) [Compound 150, 1-((2R,5S)-4-((R)-6-chloro-7-(1-cyclopropyl-6-methyl-1H-indazol-7-yl)-2-(3-(dimethylamino)azetidin-1-yl)-8-fluoroquinazolin-4-yl)-2,5-dimethylpiperazin-1-yl)prop-2-en-1-one] | +++ (+++ indicates binding activity greater than 80%)
C=CC(=O)N1C[C@H](C)N(c2nc(OC[C@H]3COCCN3C)nc3c(F)c(-c4c(C)ccc5cnn(C)c45)c(Cl)cc23)C[C@H]1C [Compound 178, 1-((2R,5S)-4-(6-chloro-7-(1,6-dimethyl-1H-indazol-7-yl)-8-fluoro-2-(((R)-4-methylmorpholin-3-yl)methoxy)quinazolin-4-yl)-2,5-dimethylpiperazin-1-yl)prop-2-en-1-one] | ++ (++ indicates binding activity from 50 to 80%)
1-((2R,5S)-4-(6- chloro-7-(1,6- dimethyl-1H- benzo[d][1,2,3]triazol- 7-yl)-2-(3- (dimethylamino)azetidin- 1-yl)-8- flurooquinazolin-4- yl)-2,5- dimethylpiperazin-1- yl)prop-2-en-1-one [Compound 137] | + (+ indicates binding activity greater than 0% and up to 50%)
C=CC(=O)N1CC2CCC(C1)N2c1nc(N2CC(N(C)C)C2)nc2c(F)c(-c3c(C)ccc4[nH]nc(N)c34)c(Cl)cc12 [Compound 43, 1-((1R,5S)-8-(7-(3-amino-5-methyl-1H-indazol-4-yl)-6-chloro-2-(3-(dimethylamino)azetidin-1-yl)-8-fluoroquinazolin-4-yl)-3,8-diazabicyclo[3.2.1]oc-tan-3-yl)prop-2-en-1-one] | + (+ indicates binding activity greater than 0% and up to 50%)
C=CC(=O)N1C[C@H](C)N(c2nc(N3CC(N(C)C)C3)nc3c(F)c(-c4c(F)ccc5ccn(C)c45)c(Cl)cc23)C[C@H]1C [Compound 229, 1-((2R,5S)-4-(6-chloro-2-(3-(dimethylamino)azetidin-1-yl)-8-fluoro-7-(6-fluoro-1-methyl-1H-indol-7-yl)quinazolin-4-yl)-2,5-dimethylpiperazin-1-yl)prop-2-en-1-one] | +++ (+++ indicates binding activity greater than 80%)
C=CC(=O)N1[C@H](C)CN(c2nc(N3CC(N(C)C)C3)nc3c(F)c(-c4c(C)ccc5cnn(C)c45)c(Cl)cc23)C[C@@H]1C (atropisomer, axis not shown) [Compound 141, 1-((2S,6R)-4-((S)-6-chloro-7-(1,6-dimethyl-1H-indazol-7-yl)-2-(3-(dimethylamino)azetidin-1-yl)-8-fluoroquinazolin-4-yl)-2,6-dimethylpiperazin-1-yl)propan-2-en-1-one] | + (+ indicates binding activity greater than 0% and up to 50%)

Source: US11377441B2, “Covalent inhibitors of KRAS” (Araxes Pharma LLC, priority 2017, dated 2022)
